Measurements reported in paper PMC6026081 (Bioorganic & medicinal chemistry letters, 2017).
pIC50: −log10 of the molar value.

test system: not listed separately; assay: Kinetic solubility by nephelometry; assay type: physicochemical; conditions: 0.01 M HCl (approx. pH 2.0), concentration range

Compound	Sol2.0
O=C(Nc1ccncc1)Nc1ccc(F)c(C(F)(F)F)c1 [Compd 6]	6.3–12.5/6.3–12.5 μg/mL
O=C(Nc1cccnc1)Nc1ccc(F)c(C(F)(F)F)c1 [Compd 7]	50 to 100 µg/mL
O=C(Nc1ccc2c(c1)OC(F)(F)O2)Nc1ccc2c(c1)OC(F)(F)O2 [Compd 5]	<1.6/<1.6 μg/mL
O=C(Nc1cnccn1)Nc1cnccn1 [Compd 4]	6.3–12.5/6.3–12.5 μg/mL
O=C(Nc1ccnc(C(F)(F)F)c1)Nc1ccnc(C(F)(F)F)c1 [Compd 2]	12.5–25/12.5–25 μg/mL
O=C(Nc1ccc(F)c(C(F)(F)F)c1)Nc1ccc(F)c(C(F)(F)F)c1 [Compd 1]	<1.6/<1.6 μg/mL

Further lines, results first:

Sol2.0	Compound
1.6–3.1/1.6–3.1 μg/mL	NC(=O)c1ccccc1NC(=O)Nc1ccc(F)c(C(F)(F)F)c1 [Compd 14]
1.6 to 3.1 µg/mL	O=C(Nc1cccc(C(=O)O)c1)Nc1ccc(F)c(C(F)(F)F)c1 [Compd 12]
1.6 to 3.1 µg/mL	O=C(Nc1ccc(F)c(C(F)(F)F)c1)Nc1cnccn1 [Compd 9]
3.1–6.3/3.1–6.3 μg/mL	O=C(Nc1ccnc(C(F)(F)F)c1)Nc1ccc(F)c(C(F)(F)F)c1 [Compd 18]
<1.6/<1.6 μg/mL	N#Cc1ccc(NC(=O)Nc2ccc(F)c(C(F)(F)F)c2)cc1 [Compd 15]
1.6–3.1/1.6–3.1 μg/mL	N#Cc1ccc(NC(=O)Nc2ccnc(C(F)(F)F)c2)cc1 [Compd 19]
3.1–6.3/3.1–6.3 μg/mL	O=C(Nc1ccnc(C(F)(F)F)c1)Nc1ccc2c(c1)OC(F)(F)O2 [Compd 20]
12.5 to 25 µg/mL	Cc1cc(NC(=O)Nc2ccc(F)c(C(F)(F)F)c2)on1 [Compd 10]
<1.6/<1.6 μg/mL	O=C(Nc1ccc2c(c1)OC(F)(F)O2)Nc1ccc(F)c(C(F)(F)F)c1 [Compd 17]
6.3–12.5/6.3–12.5 μg/mL	NC(=O)c1ccc(NC(=O)Nc2ccc(F)c(C(F)(F)F)c2)cc1 [Compd 13]
1.6 to 3.1 µg/mL	O=C(Nc1ccc(F)c(C(F)(F)F)c1)Nc1ccccn1 [Compd 8]
<1.6/<1.6 μg/mL	CC(=O)c1ccc(NC(=O)Nc2ccc(F)c(C(F)(F)F)c2)cc1 [Compd 16]

same assay, conditions: pH 6.5 phosphate buffer, concentration range

Compound	Sol6.5
O=C(Nc1ccncc1)Nc1ccc(F)c(C(F)(F)F)c1 [Compd 6]	6.3–12.5/6.3–12.5 μg/mL
O=C(Nc1cccnc1)Nc1ccc(F)c(C(F)(F)F)c1 [Compd 7]	12.5 to 25 µg/mL
O=C(Nc1ccc2c(c1)OC(F)(F)O2)Nc1ccc2c(c1)OC(F)(F)O2 [Compd 5]	<1.6/<1.6 μg/mL
O=C(Nc1cnccn1)Nc1cnccn1 [Compd 4]	6.3–12.5/6.3–12.5 μg/mL
O=C(Nc1ccnc(C(F)(F)F)c1)Nc1ccnc(C(F)(F)F)c1 [Compd 2]	12.5–25/12.5–25 μg/mL
O=C(Nc1ccncc1)Nc1ccncc1 [Compd 3]	12.5 to 25 µg/mL
O=C(Nc1ccc(F)c(C(F)(F)F)c1)Nc1ccc(F)c(C(F)(F)F)c1 [Compd 1]	<1.6/<1.6 μg/mL

Other lines, results leading:

Sol6.5	Compound
12.5 to 25 µg/mL	O=C(Nc1ccc(C(=O)O)cc1)Nc1ccc(F)c(C(F)(F)F)c1 [Compd 11]
1.6–3.1/1.6–3.1 μg/mL	NC(=O)c1ccccc1NC(=O)Nc1ccc(F)c(C(F)(F)F)c1 [Compd 14]
12.5 to 25 µg/mL	O=C(Nc1cccc(C(=O)O)c1)Nc1ccc(F)c(C(F)(F)F)c1 [Compd 12]
3.1–6.3/3.1–6.3 μg/mL	O=C(Nc1ccnc(C(F)(F)F)c1)Nc1ccc(F)c(C(F)(F)F)c1 [Compd 18]
<1.6/<1.6 μg/mL	N#Cc1ccc(NC(=O)Nc2ccc(F)c(C(F)(F)F)c2)cc1 [Compd 15]
1.6–3.1/1.6–3.1 μg/mL	N#Cc1ccc(NC(=O)Nc2ccnc(C(F)(F)F)c2)cc1 [Compd 19]
3.1–6.3/3.1–6.3 μg/mL	O=C(Nc1ccnc(C(F)(F)F)c1)Nc1ccc2c(c1)OC(F)(F)O2 [Compd 20]
6.3 to 12.5 µg/mL	Cc1cc(NC(=O)Nc2ccc(F)c(C(F)(F)F)c2)on1 [Compd 10]
<1.6/<1.6 μg/mL	O=C(Nc1ccc2c(c1)OC(F)(F)O2)Nc1ccc(F)c(C(F)(F)F)c1 [Compd 17]
6.3–12.5/6.3–12.5 μg/mL	NC(=O)c1ccc(NC(=O)Nc2ccc(F)c(C(F)(F)F)c2)cc1 [Compd 13]
<1.6/<1.6 μg/mL	CC(=O)c1ccc(NC(=O)Nc2ccc(F)c(C(F)(F)F)c2)cc1 [Compd 16]

test system: not listed separately; assay: Cytotoxicity, growth inhibition of U-20S cells; assay type: cell-based; conditions: human

Compound	pIC50
O=C(Nc1ccnc(C(F)(F)F)c1)Nc1ccc(F)c(C(F)(F)F)c1 [Compd 18]	< 4.00
N#Cc1ccc(NC(=O)Nc2ccc(F)c(C(F)(F)F)c2)cc1 [Compd 15]	< 4.00
N#Cc1ccc(NC(=O)Nc2ccnc(C(F)(F)F)c2)cc1 [Compd 19]	< 4.00
O=C(Nc1ccc2c(c1)OC(F)(F)O2)Nc1ccc2c(c1)OC(F)(F)O2 [Compd 5]	< 4.00
O=C(Nc1ccnc(C(F)(F)F)c1)Nc1ccc2c(c1)OC(F)(F)O2 [Compd 20]	< 4.00
O=C(Nc1ccc2c(c1)OC(F)(F)O2)Nc1ccc(F)c(C(F)(F)F)c1 [Compd 17]	< 4.00
O=C(Nc1ccnc(C(F)(F)F)c1)Nc1ccnc(C(F)(F)F)c1 [Compd 2]	< 4.00
O=C(Nc1ccc(F)c(C(F)(F)F)c1)Nc1ccc(F)c(C(F)(F)F)c1 [Compd 1]	< 4.00

test system: not listed separately; assay: Cytotoxicity, growth inhibition of HEK293 cells; assay type: cell-based; conditions: human, HEK293 cells (kidney)

Compound	pIC50
O=C(Nc1ccnc(C(F)(F)F)c1)Nc1ccc(F)c(C(F)(F)F)c1 [Compd 18]	< 4.00
N#Cc1ccc(NC(=O)Nc2ccc(F)c(C(F)(F)F)c2)cc1 [Compd 15]	< 4.00
N#Cc1ccc(NC(=O)Nc2ccnc(C(F)(F)F)c2)cc1 [Compd 19]	< 4.00
O=C(Nc1ccc2c(c1)OC(F)(F)O2)Nc1ccc2c(c1)OC(F)(F)O2 [Compd 5]	< 4.00
O=C(Nc1ccnc(C(F)(F)F)c1)Nc1ccc2c(c1)OC(F)(F)O2 [Compd 20]	< 4.00
O=C(Nc1ccc2c(c1)OC(F)(F)O2)Nc1ccc(F)c(C(F)(F)F)c1 [Compd 17]	< 4.00
O=C(Nc1ccnc(C(F)(F)F)c1)Nc1ccnc(C(F)(F)F)c1 [Compd 2]	< 4.00
O=C(Nc1ccc(F)c(C(F)(F)F)c1)Nc1ccc(F)c(C(F)(F)F)c1 [Compd 1]	< 4.00

test system: not listed separately; assay: Cytotoxicity, growth inhibition of HC-04 cells; assay type: cell-based; conditions: human, HC-04 cells (hepatocyte)

Compound	pIC50
O=C(Nc1ccnc(C(F)(F)F)c1)Nc1ccc(F)c(C(F)(F)F)c1 [Compd 18]	< 4.00
N#Cc1ccc(NC(=O)Nc2ccc(F)c(C(F)(F)F)c2)cc1 [Compd 15]	< 4.00
N#Cc1ccc(NC(=O)Nc2ccnc(C(F)(F)F)c2)cc1 [Compd 19]	< 4.00
O=C(Nc1ccc2c(c1)OC(F)(F)O2)Nc1ccc2c(c1)OC(F)(F)O2 [Compd 5]	< 4.00
O=C(Nc1ccnc(C(F)(F)F)c1)Nc1ccc2c(c1)OC(F)(F)O2 [Compd 20]	< 4.00
O=C(Nc1ccc2c(c1)OC(F)(F)O2)Nc1ccc(F)c(C(F)(F)F)c1 [Compd 17]	< 4.00
O=C(Nc1ccnc(C(F)(F)F)c1)Nc1ccnc(C(F)(F)F)c1 [Compd 2]	< 4.00
O=C(Nc1ccc(F)c(C(F)(F)F)c1)Nc1ccc(F)c(C(F)(F)F)c1 [Compd 1]	< 4.00

test system: not listed separately; assay: Plasma exposure after single oral dose in non-infected mice; assay type: in vivo, male Swiss outbred mice; conditions: single 100 mg/kg oral dose, non-infected mice

plasma concentration by ~18 h post-dose	Compound
below 1 μM	N#Cc1ccc(NC(=O)Nc2ccc(F)c(C(F)(F)F)c2)cc1 [Compd 15]
below 1 μM	N#Cc1ccc(NC(=O)Nc2ccnc(C(F)(F)F)c2)cc1 [Compd 19]

same assay, conditions: single 100 mg/kg oral dose, non-infected mice; up to 48 h post-dose

Compound	plasma concentration maintained over the 48 h sampling period
O=C(Nc1ccc2c(c1)OC(F)(F)O2)Nc1ccc2c(c1)OC(F)(F)O2 [Compd 5]	> 5 µM
O=C(Nc1ccc(F)c(C(F)(F)F)c1)Nc1ccc(F)c(C(F)(F)F)c1 [Compd 1]	above 1 μM

The next lines start with the values.

plasma concentration maintained over the 48 h sampling period	Compound
> 5 µM	O=C(Nc1ccnc(C(F)(F)F)c1)Nc1ccc2c(c1)OC(F)(F)O2 [Compd 20]
> 5 µM	O=C(Nc1ccc2c(c1)OC(F)(F)O2)Nc1ccc(F)c(C(F)(F)F)c1 [Compd 17]

same assay, conditions: single 100 mg/kg oral dose; fold higher than 1

systemic exposure (AUC to last measured concentration) relative to 1	Compound
2–4 fold	O=C(Nc1ccnc(C(F)(F)F)c1)Nc1ccc(F)c(C(F)(F)F)c1 [Compd 18]
2–4 fold	O=C(Nc1ccnc(C(F)(F)F)c1)Nc1ccnc(C(F)(F)F)c1 [Compd 2]

test system: S. mansoni; assay: not given; conditions: 400 mg/kg dose; cited from earlier work

Compound	worm burden reduction [%]
O=C(C1CCCCC1)N1CC(=O)N2CCc3ccccc3C2C1 (stereo not shown) [praziquantel]	96

test system: ex vivo S. mansoni; assay: not given; conditions: cited from earlier work

Compound	in vitro selectivity index [fold]	potency against ex vivo S. mansoni relative to praziquantel (fold less potent) [fold]
O=C(Nc1ccc(Cl)c(Cl)c1)Nc1ccc(Cl)c(Cl)c1 [MMV665852]	64	4

test system: not given; assay: not given; conditions: 46.3 mg/kg oral dose; cited from earlier work

Compound	half-life [h]
O=C(Nc1ccc(Cl)c(Cl)c1)Nc1ccc(Cl)c(Cl)c1 [MMV665852]	4.7

test system: not given; assay: not given; conditions: cited from earlier work

Compound	LogD7.4
O=C(Nc1ccc(Cl)c(Cl)c1)Nc1ccc(Cl)c(Cl)c1 [MMV665852]	5.2
